The text below walks through data of patent US20130108628A1, “Method for treating cancer pain and/or rescuing analgesic effect of morphine treatment of cancer pain” (priority 2011, published 2013).

Entries after “also recorded” stand apart in the source; their conditions may differ. Peptide text beside a SMILES is read from it.

Assay type in all cases: in vivo, rat
In assay [1] the test system is EphB1. Put plainly: Western blot of EphB1 and its phosphorylation in spinal cord of TCI rats. The following applies: for Increased levels of EphB1: exogenous MMP, no EphB2-Fc. As for the experimental part: (§1) Protein precipitation procedures in conjunction with Western blots were employed to identify temporal expression of EphB1, ephrinB2 protein and their phosphorylation. Protocols were similar to those described previously (Liu W T, et al., FASEB J 2009; 23:90-8; Liu W T, et al., J Neurosci 2010; 30:7613-23). EphB1 and ephrinB2 were immunoprecipitated from 2 mg total protein/int tissue lysate using an anti-EphB1 antibody (2 μg; Santa Cruz Technology, SCT) complex with protine G-agarose (Invitrogen) and wheat germ agglutinin (WGA) linked to agarose (Sigma), respectively. EphrinB2 and its phosphorylation were detected using anti-ephrinB2 (C20, SCT) and anti-phosphotyrosine antibody PY99 (SCT), respectively (Georgakopoulos A, et al., EMBO J 2006; 25:1242-52). EphB1 and its phosphorylation were detected using anti-EphB1 antibody (Q20, SCT) and phosphotyrosine antibody 4G 10 (Upstate Biotechnology), respectively (Compagni A, et al., Dev Cell 2003; 5:217-30). NR2A immunoprecipitation was performed using anti-NR2A antibody followed by adsorption to protein G-agarose. Whole cell protein extracts lysates were used to identify temporal expression of the phosphorylated protein levels of NR1(pNR1), NR2B(pNR2B), Src(pSrc), ERK(pERK), CaMKII(pCaMKII), CREB(pCREB) and GAPDH. The primary antibodies were used include pNR1(Ser897), 1:800 (Millipore); pNR2B(Tyr1472), 1:300 (Chemicon); pSrc(Tyr418), 1:800 (Abeam, Cambridge, UK); pERK1/2(Thr202/Tyr204), 1:500; pCaMKII(Thr286), 1:1000 (Cell Signaling Technology); GAPDH, 1:1000 (Sigma); GFAP and pCREB (Ser133)(SCT). The filters were then developed using ECL reagents (Perkinelmer) with secondary antibodies (Chemicon). Data was analyzed with a Molecular Imager (Gel Doc™ XR, 170-8170) and the associated software Quantity One-4.6.5 (Bio-Rad Laboratories).
(In western blotting, separated proteins are transferred to a membrane and probed.)

For assay [2], the system named is EphB1. Put plainly: Western blot of EphB1 and pEphB1 in spinal cord of naive rats. The note with it: for Activation (phosphorylation) of EphB1 / Expression of EphB1 protein: exogenous MMP, no EphB2-Fc. As for the experimental part:
as §1

Assay [3] is described as follows: Morphine analgesia on thermal hyperalgesia in TCI rats. As for the experimental part:
Tumor cells were extracted from ascitic fluid of rats that received Walker-256 rat mammary gland carcinoma cells. Tumor cells implantation (TCI) was mimicked by injecting the cells (1×10^5 cells/μl, 5 μl) into the intra-medullary space of the right tibia to induce bone cancer in rats (Medhurst S J, et al., Pain 2002; 96:129-40).
Thermal hyperalgesia was determined by the significant shortened latency of foot withdrawal in response to heat stimulation. Mechanical allodynia was indicated by a significant decrease in the threshold of paw withdrawal to mechanical indentation of the plantar surface of each hindpaw. The protocols were similar to those described previously (Song X J, et al., J Neurophysiol 2006; 95:479-92; Wang Z B, et al., Pain 2005; 114:266-77).

Assay [4] deals with EphB1. Put plainly: Western blot of EphB1 after acute or chronic morphine treatment. As for the experimental part: as §1

In the case of `CC(C)C[C@@H](NC(=O)[C@@H]1CCCN1C(=O)CNC(=O)c1ccc(N)cc1)C(=O)N[C@H](C)C(=O)NO` [FN439] (HELM PEPTIDE1{[Nc1ccc(C(=O)[*:2])cc1].G.P.[dL].[dA].[ON[*:1]]}$$$$V2.0), the “EphB2-Fc-induced downregulation of EphB1” value in the assay on EphB1 [1] (MMP2i 10 μg or FN439 100 μg) and in the assay on EphB1 [2] (MMP2i 10 μg or FN439 100 μg) was “reversed; also recorded: completely prevented” in each case. In the assay with EphB1 [1] (blocking MMP-2 or MMP-9), the “TCI-induced upregulation of EphB1, without EphB2-Fc treatment” value is recorded as “inhibited”. Further, in the assay with EphB1 [2] (blocking MMP-2 or MMP-9), the “EphB1 level, without EphB2-Fc treatment” value is recorded as “keeping EphB1 at its physiological levels”.
With “MMP-9: exogenous matrix metalloproteinase-9 administered to rats”, in the assay on EphB1 [1], the “Increased levels of EphB1” value was “did not significantly alter”. For the same molecule, in the assay with EphB1 [2], the “Activation (phosphorylation) of EphB1” value was “an increase rather than a decline” and the “Expression of EphB1 protein” value is “without altering”.
`CN1CC[C@]23c4c5ccc(O)c4O[C@H]2[C@@H](O)C=C[C@H]3[C@H]1C5` [morphine]: the Thermal hyperalgesia entry in assay [3] (morphine 10 mg/kg s.c. twice a day) is reported as “significantly suppressed”. In addition, the “Time after which the analgesic effect decreased and disappeared (tolerance)” value in assay [3] (repeated morphine 10 mg/kg s.c. twice a day) was in the range of 6 to 7 days. Moreover, the “Expression of EphB1 and its phosphorylation” value in the assay on EphB1 [4] (acute morphine treatment (100 mg/kg, then 10 mg/kg at 24 h)) is “significantly increased”; with EphB1 [4] (acute morphine treatment (100 mg/kg, then 10 mg/kg at 24 h), listed as Mor) it was “upregulates”; in the assay on EphB1 [4] (chronic morphine treatment (10 mg/kg)), “significantly increased”.

B1: MMP-2: exogenous matrix metalloproteinase-2 administered to rats (protein, UniProt P33436 110-662, looked up)
72 kDa type IV collagenase: YNFFPRKPKWDKNQITYRIIGYTPDLDPETVDDAFARALKVWSDVTPLRFSRIHDGEADIMINFGRWEHGDGYPFDGKDGLLAHAFAPGTGVGGDSHFDDDELWTLGEGQVVRVKYGNADGEYCKFPFLFNGREYSSCTDTGRSDGFLWCSTTYNFEKDGKYGFCPHEALFTMGGNGDGQPCKFPFRFQGTSYNSCTTEGRTDGYRWCGTTEDYDRDKKYGFCPETAMSTVGGNSEGAPCVFPFTFLGNKYESCTSAGRSDGKVWCATTTNYDDDRKWGFCPDQGYSLFLVAAHEFGHAMGLEHSQDPGALMAPIYTYTKNFRLSNDDIKGIQELYGPSPDADTDTGTGPTPTLGPVTPEICKQDIVFDGIAQIRGEIFFFKDRFIWRTVTPRDKPTGPLLVATFWPELPEKIDAVYEAPQEEKAVFFAGNEYWVYSASTLERGYPKPLTSLGLPPDVQQVDAAFNWSKNKKTYIFSGDKFWRYNEVKKKMDPGFPKLIADSWNAIPDNLDAVVDLQGGGHSYFFKGAYYLKLENQSLKSVKFGSIKSDWLGC
For the molecule B1, the “Increased levels of EphB1” value with EphB1 [1] is “did not significantly alter”. Also, in the assay on EphB1 [2], the “Activation (phosphorylation) of EphB1” value is on record as “an increase rather than a decline” and the “Expression of EphB1 protein” value is given as “without altering”.
